Experimental data: patent US9580390B2, “Indazole compounds as kinase inhibitors and method of treating cancer with same” (University Health Network, priority 2011, dated 2017)
Like-named read-outs stand apart in the source and are kept apart here.

Tests used:
[1] = molecular target: T1, human TTK (Homo sapiens, UniProt P33981); assay: TTK inhibition assay (indirect ELISA); assay type: biochemical; conditions: read-out: TTK IC50 Range
T1 construct: amino terminal GST fusion of full length human TTK; purchased Invitrogen
T1 sequence (P33981 1-857): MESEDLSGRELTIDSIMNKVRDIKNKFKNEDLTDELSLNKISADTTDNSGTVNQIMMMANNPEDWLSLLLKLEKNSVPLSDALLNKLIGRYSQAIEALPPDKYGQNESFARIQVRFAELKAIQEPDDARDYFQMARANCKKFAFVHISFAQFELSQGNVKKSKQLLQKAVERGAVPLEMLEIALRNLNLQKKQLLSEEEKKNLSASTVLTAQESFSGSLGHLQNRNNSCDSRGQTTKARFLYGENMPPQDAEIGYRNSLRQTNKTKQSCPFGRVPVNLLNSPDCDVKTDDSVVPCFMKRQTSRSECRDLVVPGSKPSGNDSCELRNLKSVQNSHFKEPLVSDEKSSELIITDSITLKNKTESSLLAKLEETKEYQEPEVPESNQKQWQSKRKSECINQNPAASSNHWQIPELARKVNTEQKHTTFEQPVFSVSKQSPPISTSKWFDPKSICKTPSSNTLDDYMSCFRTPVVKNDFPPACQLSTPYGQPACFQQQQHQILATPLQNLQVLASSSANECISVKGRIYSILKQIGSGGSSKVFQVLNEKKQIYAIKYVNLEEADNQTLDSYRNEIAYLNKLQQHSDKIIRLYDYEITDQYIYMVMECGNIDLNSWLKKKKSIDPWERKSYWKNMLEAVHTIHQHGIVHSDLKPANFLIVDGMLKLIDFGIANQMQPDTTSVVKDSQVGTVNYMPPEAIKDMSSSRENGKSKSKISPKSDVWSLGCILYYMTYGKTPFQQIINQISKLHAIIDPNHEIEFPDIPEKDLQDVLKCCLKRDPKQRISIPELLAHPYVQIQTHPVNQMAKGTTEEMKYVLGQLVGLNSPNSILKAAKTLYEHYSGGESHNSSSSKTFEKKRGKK

[2] = system: colon cancer cells (HCT116); assay: Cancer cell line growth inhibition (SRB assay); assay type: cell-based; conditions: Homo sapiens, HCT-116, read-out: Cancer Cell Line GI50 Range HCT116
[3] = system: ovarian cancer cells (PA-1); assay: Cancer cell line growth inhibition (SRB assay); assay type: cell-based; conditions: Homo sapiens, PA-1; read-out: Cancer Cell Line GI50 Range PA-1
[4] = HCT116 colon cancer cells, SRB assay

## O=C(Nc1ccc2[nH]nc(-c3ccc(CN4CCOCC4)cc3)c2c1)C1CCCc2ccccc21 (stereo not shown) [Example A23, N-(3-(4-(morpholinomethyl)phenyl)-1H-indazol-5-yl)-1,2,3,4-tetrahydronaphthalene-1-carboxamide]
[1]
  IC50: 100 to 500 nM
[2]; [4]
  GI50: > 500 nM

## O=C(Nc1ccc2[nH]nc(-c3ccc(N4CCOCC4)nc3)c2c1)C(c1ccsc1)N1CCCC1 (stereo not shown) [Example A52, N-(3-(6-morpholinopyridin-3-yl)-1H-indazol-5-yl)-2-(pyrrolidin-1-yl)-2-(thiophen-3-yl)acetamide]
[1]
  IC50: < 100 nM
[2]; [4]
  GI50: 100 to 500 nM

## O=C(NC(c1ccccc1)C1CC1)c1ccc2[nH]nc(-c3ccc(N4CCOCC4)nc3)c2c1 (stereo not shown) [Example A54, N-(cyclopropyl(phenyl)methyl)-3-(6-morpholinopyridin-3-yl)-1H-indazole-5-carboxamide]
[1]
  IC50: < 100 nM
[2]; [4]
  GI50: > 500 nM

## CN1CCC(Oc2ccc(-c3n[nH]c4ccc(NC(=O)Nc5ccccc5F)cc34)cc2)CC1 [Example A56, 1-(2-fluorophenyl)-3-(3-(4-((1-methylpiperidin-4-yl)oxy)phenyl)-1H-indazol-5-yl)urea]
[1]
  IC50: 100 to 500 nM
[2]; [4]
  GI50: > 500 nM

## Cc1cc(-c2n[nH]c3ccc(NC(=O)C(c4ccsc4)N4CCCC4)cc23)ccc1N1CCOCC1 (stereo not shown) [Example A59, N-(3-(3-methyl-4-morpholinophenyl)-1H-indazol-5-yl)-2-(pyrrolidin-1-yl)-2-(thiophen-3-yl)acetamide]
[1]
  IC50: 100 to 500 nM
[2]; [4]
  GI50: > 500 nM

## O=C(NC(c1ccccc1)C1CC1)c1ccc2[nH]nc(-c3cccc(N4CCOCC4)c3)c2c1 (stereo not shown) [Example A61, N-(cyclopropyl(phenyl)methyl)-3-(3-morpholinophenyl)-1H-indazole-5-carboxamide]
[1]
  IC50: 100 to 500 nM
[2]; [4]
  GI50: > 500 nM

## Cc1cc(-c2n[nH]c3ccc(C(=O)NC(c4ccccc4)C4CC4)cc23)ccc1N1CCOCC1 (stereo not shown) [Example A64, N-(cyclopropyl(phenyl)methyl)-3-(3-methyl-4-morpholinophenyl)-1H-indazole-5-carboxamide]
[1]
  IC50: 100 to 500 nM
[2]; [4]
  GI50: > 500 nM

## O=C(NC(c1ccccc1)C1CC1)c1ccc2[nH]nc(-c3ccc(N4CCOCC4)c(F)c3)c2c1 (stereo not shown) [Example A65, N-(cyclopropyl(phenyl)methyl)-3-(3-fluoro-4-morpholinophenyl)-1H-indazole-5-carboxamide]
[1]
  IC50: 100 to 500 nM
[2]; [4]
  GI50: > 500 nM

## O=C(Nc1ccc2[nH]nc(-c3ccc(N4CCOCC4)cc3)c2c1)Nc1ccccc1Cl [Example A66, 1-(2-chlorophenyl)-3-(3-(4-morpholinophenyl)-1H-indazol-5-yl)urea]
[1]
  IC50: > 500 nM
[2]; [4]
  GI50: > 500 nM

## CCN(C(=O)Nc1ccc2[nH]nc(-c3ccc(N4CCOCC4)cc3)c2c1)c1ccccc1 [Example A72, 1-ethyl-3-(3-(4-morpholinophenyl)-1H-indazol-5-yl)-1-phenylurea]
[1]
  IC50: > 500 nM

## CN1CCN(c2ccc(-c3n[nH]c4ccc(NC(=O)C(c5ccsc5)N5CCCC5)cc34)cc2)C(=O)C1 (stereo not shown) [Example A94, N-(3-(4-(4-Methyl-2-oxopiperazin-1-yl)phenyl)-1H-indazol-5-yl)-2-(pyrrolidin-1-yl)-2-(thiophen-3-yl)acetamide]
[1]
  IC50: > 500 nM

## O=CN1CCC(Oc2ccc(-c3n[nH]c4ccc(C(=O)N[C@@H](c5ncccc5Cl)C5CC5)cc34)cc2)CC1 [Example A211, (R)-N-((3-chloropyridin-2-yl)(cyclopropyl)methyl)-3-(4-((1-formylpiperidin-4-yl)oxy)phenyl)-1H-indazole-5-carboxamide]
[2]
  GI50: 100 to 500 nM
[3]
  GI50: 100 to 500 nM

## C[C@@H]1C[C@H](Oc2ccc(-c3n[nH]c4ccc(C(=O)NCC5(N6CCOCC6)CCCC5)cc34)cc2)C[C@H](C)O1 [Example A430, (4-(((2R,4R,6S)-2,6-dimethyltetrahydro-2H-pyran-4-yl)oxy)phenyl)-N-((1-morpholinocyclopentyl)methyl)-1H-indazole-5-carboxamide]
[1]
  IC50: 100 to 500 nM

## O=C(NCC1(N2CCC(F)CC2)CCCCC1)c1ccc2[nH]nc(-c3ccc(N4CCOCC4)cc3)c2c1 [Example A456, N-((1-(4-fluoropiperidin-1-yl)cyclohexyl)methyl)-3-(4-morpholinophenyl)-1H-indazole-5-carboxamide]
[1]
  IC50: 100 to 500 nM

## O=C(NCC1(N2CCC(F)(F)CC2)CCCCC1)c1ccc2[nH]nc(-c3ccc(N4CCOCC4)cc3)c2c1 [Example A457, N-((1-(4,4-difluoropiperidin-1-yl)cyclohexyl)methyl)-3-(4-morpholinophenyl)-1H-indazole-5-carboxamide]
[1]
  IC50: 100 to 500 nM

## C[C@@H]1CC(CNC(=O)c2ccc3[nH]nc(-c4ccc(OC5CCN(C)CC5)cc4)c3c2)(N2CCOCC2)C[C@H](C)O1 (stereo partly drawn) [Example A475, N-(((2R,6S)-2,6-dimethyl-4-morpholinotetrahydro-2H-pyran-4-yl)methyl)-3-(4-((1-methylpiperidin-4-yl)oxy)phenyl)-1H-indazole-5-carboxamide]
[1]
  IC50: 100 to 500 nM

## O=C(NCC1(N2CCOCC2)CCCC1)c1ccc2[nH]nc(-c3ccc(OC4CCOCC4)cc3)c2c1 [Example A477, N-((1-morpholinocyclopentyl)methyl)-3-(4-((tetrahydro-2H-pyran-4-yl)oxy)phenyl)-1H-indazole-5-carboxamide]
[1]
  IC50: 100 to 500 nM

## CN1CCC(Oc2ccc(-c3n[nH]c4ccc(C(=O)NCC5(N6CCOCC6)CCC5)cc34)cc2)CC1 [Example A479, 3-(4-((1-methylpiperidin-4-yl)oxy)phenyl)-N-((1-morpholinocyclobutyl)methyl)-1H-indazole-5-carboxamide]
[1]
  IC50: 100 to 500 nM

## CN1CCC(Oc2ccc(-c3n[nH]c4ccc(C(=O)NCC5(CN6CCOCC6)CC5)cc34)cc2)CC1 [Example A498, 3-(4-((1-methylpiperidin-4-yl)oxy)phenyl)-N-((1-(morpholinomethyl)cyclopropyl)methyl)-1H-indazole-5-carboxamide]
[1]
  IC50: 100 to 500 nM

## O=C(NCC1(N2CCOCC2)CCCOC1)c1ccc2[nH]nc(-c3ccc(N4CCOCC4)cc3)c2c1 (stereo not shown) [Example A515, 3-(4-morpholinophenyl)-N-((3-morpholinotetrahydro-2H-pyran-3-yl)methyl)-1H-indazole-5-carboxamide]
[1]
  IC50: < 100 nM

## O=C(NCC1(N2CCOCC2)CCCOC1)c1ccc2[nH]nc(-c3ccc(N4[C@@H]5CC[C@H]4C[C@H](O)C5)cc3)c2c1 (stereo partly drawn) [Example A516, 3-(4-((1R,3S,5S)-3-hydroxy-8-azabicyclo[3.2.1]octan-8-yl)phenyl)-N-((3-morpholinotetrahydro-2H-pyran-3-yl)methyl)-1H-indazole-5-carboxamide]
[1]
  IC50: < 100 nM

## O=C(NCC1(N2CCOCC2)CCCOC1)c1ccc2[nH]nc(-c3ccc(N4[C@@H]5CC[C@H]4COC5)cc3)c2c1 (stereo partly drawn) [Example A517, 3-(4-((1R,5S)-3-oxa-8-azabicyclo[3.2.1]octan-8-yl)phenyl)-N-((3-morpholinotetrahydro-2H-pyran-3-yl)methyl)-1H-indazole-5-carboxamide]
[1]
  IC50: < 100 nM

## CC(C)C[C@H](NC(=O)c1ccc2[nH]nc(-c3ccc(N4C5CCC4CC(O)C5)cc3)c2c1)c1ccccc1F (stereo partly drawn) [Example A518, N-((S)-1-(2-fluorophenyl)-3-methylbulyl)-3-(4-((1R,3S,5S)-3-hydroxy-8-azabicyclo[3.2.1]octan-8-yl)phenyl)-1H-indazole-5-carboxamide]
[1]
  IC50: < 100 nM

## CC(C)C[C@H](NC(=O)c1ccc2[nH]nc(-c3ccc(N4[C@@H]5CC[C@H]4COC5)cc3)c2c1)c1ccccc1F [Example A519, 3-(4-((1R,5S)-3-oxa-8-azabicyclo[3.2.1]octan-8-yl)phenyl)-N-((S)-1-(2-fluorophenyl)-3-methylbutyl)-1H-indazole-5-carboxamide]
[1]
  IC50: < 100 nM

## CC(C)(C)C[C@H](NC(=O)c1ccc2[nH]nc(-c3ccc(N4CC(N5CCOCC5)C4)cc3)c2c1)c1ccccc1 [Example A520, (S)-N-(3,3-dimethyl-1-phenylbutyl)-3-(4-(3-morpholinoazetidin-1-yl)phenyl)-1H-indazole-5-carboxamide]
[1]
  IC50: < 100 nM

## CC(C)C[C@H](NC(=O)c1ccc2[nH]nc(-c3ccc(N4CC(N5CCOCC5)C4)cc3)c2c1)c1ccccc1 [Example A521, (S)-N-(3-methyl-1-phenylbutyl)-3-(4-(3-morpholinoazetidin-1-yl)phenyl)-1H-indazole-5-carboxamide]
[1]
  IC50: < 100 nM

## CC(C)[C@H](NC(=O)c1ccc2[nH]nc(-c3ccc(N4CC(N5CCOCC5)C4)cc3)c2c1)c1ncccc1F [Example A522, (S)-N-(1-(3-fluoropyridin-2-yl)-2-methylpropyl)-3-(4-(3-morpholinoazetidin-1-yl)phenyl)-1H-indazole-5-carboxamide]
[1]
  IC50: < 100 nM
